Assay results published in patent publication US7713950B2, “Antibacterial 1-(4-mono-and di-halomethylsulphonylphenyl)-2-acylamino-3-fluoroproponals and preparation thereof” (Intervet Inc., priority 2003, dated 2010).
Values after ≈ are worked out from the molar mass of the structure shown.

Columns and labels:
Assay type in all cases: cell-based
[1] = test system: Mannheimia haemolytica; test: Broth microdilution susceptibility testing (MIC), Mannheimia haemolytica; conditions: broth microdilution (NCCLS, 2002), read-out: Minimal inhibitory concentration against Mannheimia haemolytica
Method: (§1) The list is not intended, nor should it be construed, to limit the scope of this invention in any manner whatsoever.
(§2) Compounds were tested for antimicrobial activity against several bacterial stains using standard broth microdilution susceptibility testing methodology (NCCLS, 2002). […] The enhanced activity of Compound 1 is especially noteworthy.
(§3) NCCLS. 2002. Performance standards for antimicrobial disk and dilution susceptibility tests for bacteria isolated from animals; approved standard-second edition. NCCLS document M31-A2 [ISBN 1-56238-461-9]. NCCLS, 940 West Valley Road, Suite 1400, Wayne, Pa. 19087-1898 USA.

[2] = test system: Pasteurella multocida; test: Broth microdilution susceptibility testing (MIC), Pasteurella multocida; conditions: broth microdilution (NCCLS, 2002), read-out: Minimal inhibitory concentration against Pasteurella multocida
Method: as §1, §2, §3

[3] = test system: Staphylococcus aureus; test: Broth microdilution susceptibility testing (MIC), Staphylococcus aureus; conditions: broth microdilution (NCCLS, 2002), read-out: Minimal inhibitory concentration against Staphylococcus aureus
Method: as §1, §2, §3

[4] = test system: Escherichia coli; test: Broth microdilution susceptibility testing (MIC), Escherichia coli; conditions: broth microdilution (NCCLS, 2002), read-out: Minimal inhibitory concentration against Escherichia coli
Method: as §1, §2, §3

[5] = test system: Florfenicol-resistant Pasteurella multocida; test: Broth microdilution susceptibility testing (MIC), florfenicol-resistant Pasteurella multocida; conditions: for MIC: Pasteurella multocida, broth microdilution (NCCLS, 2002), florfenicol-resistant strain, read-out: Minimal inhibitory concentration against Florfenicol-resistant Pasteurella multocida
Method: as §1, §2, §3

[6] = test system: five bacterial strains; test: Broth microdilution susceptibility testing, comparison with florfenicol over the strain panel; conditions: five bacterial strains of Table 2
Method: as §1, §2, §3

Row | MIC [2] [µg/mL] | MIC [3] [µg/mL] | MIC [4] [µg/mL] | MIC [5] [µg/mL] | Compound | MIC [1] [µg/mL] | Activity compared with florfenicol over the strains tested [6] | Activity relative to florfenicol against florfenicol-resistant Pasteurella multocida ([5]; versus florfenicol) [fold]
1 | 0.25 (≈ 0.774 µM) | 8 (≈ 24.8 µM) | 4 (≈ 12.4 µM) | 16 (≈ 49.5 µM) | O=C(N[C@H](CO)[C@H](O)c1ccc([N+](=O)[O-])cc1)C(Cl)Cl [Chloramphenicol, reference compound] | 1 (≈ 3.09 µM) |  | 
2 | 0.25 (≈ 0.702 µM) |  | 64 (≈ 180 µM) |  | CS(=O)(=O)c1ccc([C@@H](O)[C@@H](CO)NC(=O)C(Cl)Cl)cc1 [Thiamphenicol, reference compound] | 1 (≈ 2.81 µM) |  | 
3 | 0.125 (≈ 0.317 µM) | 4 (≈ 10.1 µM) | 16 (≈ 40.6 µM) | 2 (≈ 5.07 µM) | O=C(N[C@H](CF)[C@H](O)c1ccc(S(=O)(=O)C(F)F)cc1)C(Cl)Cl [Compound 8] | 0.5 (≈ 1.27 µM) |  | 
4 | 0.25 (≈ 0.698 µM) | 8 (≈ 22.3 µM) | 8 (≈ 22.3 µM) | 16 (≈ 44.7 µM) | CS(=O)(=O)c1ccc([C@@H](O)[C@@H](CF)NC(=O)C(Cl)Cl)cc1 [Florfenicol, reference compound] | 1 (≈ 2.79 µM) |  | 
5 | 0.25 (≈ 0.695 µM) | 2 (≈ 5.56 µM) | 4 (≈ 11.1 µM) | 4 (≈ 11.1 µM) | O=C(N[C@H](CF)[C@H](O)c1ccc(S(=O)(=O)CF)cc1)C(F)Cl (stereo partly drawn) [Compound 11] | 0.25 (≈ 0.695 µM) |  | 
6 | 0.5 (≈ 1.17 µM) | 8 (≈ 18.7 µM) | > 128 | 4 (≈ 9.37 µM) | O=C(N[C@H](CF)[C@H](O)c1ccc(S(=O)(=O)C(Cl)Cl)cc1)C(Cl)Cl [Compound 3] | 0.5 (≈ 1.17 µM) |  | 

More lines, now with the values behind:

Row | Compound | MIC [2] [µg/mL] | MIC [3] [µg/mL] | MIC [4] [µg/mL] | MIC [5] [µg/mL] | MIC [1] [µg/mL] | Activity compared with florfenicol over the strains tested [6] | Activity relative to florfenicol against florfenicol-resistant Pasteurella multocida ([5]; versus florfenicol) [fold]
7 | NCC(=O)N[C@H](CF)[C@H](O)c1ccc(S(=O)(=O)CF)cc1 [Compound 7] | 1 (≈ 3.1 µM) | 64 (≈ 199 µM) | 128 (≈ 397 µM) | > 128 | 1 (≈ 3.1 µM) |  | 
8 | O=C(N[C@H](CF)[C@H](O)c1ccc(S(=O)(=O)CF)cc1)C(F)(F)F [Compound 2] | 1 (≈ 2.77 µM) | 16 (≈ 44.3 µM) | 32 (≈ 88.6 µM) | 8 (≈ 22.1 µM) | 0.5 (≈ 1.38 µM) |  | 
9 | O=C(N[C@H](CF)[C@H](O)c1ccc(S(=O)(=O)CF)cc1)C(Cl)Br (stereo partly drawn) [Compound 10] | 0.25 (≈ 0.594 µM) | 4 (≈ 9.51 µM) | 8 (≈ 19 µM) | 4 (≈ 9.51 µM) | 0.5 (≈ 1.19 µM) |  | 
10 | O=C(N[C@H](CF)[C@H](O)c1ccc(S(=O)(=O)CF)cc1)C(F)F [Compound 9] | 0.25 (≈ 0.728 µM) | 8 (≈ 23.3 µM) | 4 (≈ 11.7 µM) | 8 (≈ 23.3 µM) | 0.5 (≈ 1.46 µM) |  | 
11 | N#CCC(=O)N[C@H](CF)[C@H](O)c1ccc(S(=O)(=O)CF)cc1 [Compound 4] | 1 (≈ 3.01 µM) | 8 (≈ 24.1 µM) | 16 (≈ 48.1 µM) | > 128 | 0.5 (≈ 1.5 µM) |  | 
12 | O=C(N[C@H](CF)[C@H](O)c1ccc(S(=O)(=O)CF)cc1)C(Cl)Cl [Compound 1, N-((1S,2R)-1-(Fluoromethyl)-2-{4-[(fluoromethyl)sulfonyl]phenyl}-2-hydroxyethyl)-2,2-dichloroacetamide] | 0.06 (≈ 0.159 µM) | 2 (≈ 5.32 µM) | 4 (≈ 10.6 µM) | 2 (≈ 5.32 µM) | 0.5 (≈ 1.33 µM) | more active than florfenicol for all five bacterial strains | 8
13 | C[C@@H](N)C(=O)N[C@H](CF)[C@H](O)c1ccc(S(=O)(=O)CF)cc1 [Compound 6] | 1 (≈ 2.97 µM) | 64 (≈ 190 µM) | 32 (≈ 95.1 µM) | 128 (≈ 381 µM) | 1 (≈ 2.97 µM) |  | 
14 | CC(=O)N[C@H](CF)[C@H](O)c1ccc(S(=O)(=O)CF)cc1 [Compound 12] | 1 (≈ 3.25 µM) | > 128 | > 128 | 32 (≈ 104 µM) | 2 (≈ 6.51 µM) |  | 
15 | [N-]=[N+]=NCC(=O)N[C@H](CF)[C@H](O)c1ccc(S(=O)(=O)CF)cc1 [Compound 5] | 0.25 (≈ 0.718 µM) | 8 (≈ 23 µM) | 8 (≈ 23 µM) | 16 (≈ 45.9 µM) | 0.25 (≈ 0.718 µM) |  | 
